Test system: patient with Prinzmetal's angina
Experiment: Prinzmetal's angina chest pain and blood pressure
Type: in vivo, human
Details: 300 mg/kg per day
Description: Another effect of the treatment of this invention was reduction in chest pain. A patient with an autoimmune disease was experiencing severe chest pains or Prinzmetal's angina—a coronary artery spasm and associated cardiac ischemia. After taking high doses of anti-herpes drugs, but no drugs specifically for the heart, the patient reported a marked reduction in the symptoms of Prinzmetal's angina, specifically, 95% reduction in pain at 300 mg/kg of famciclovir per day.

For `CC(=O)OCC(CCn1cnc2cnc(N)nc21)COC(C)=O` [famciclovir, 2-amino-9-(4-acetoxy-3-acetoxymethylbut-1-yl)purine], the “reduction in pain of Prinzmetal's angina” value was 95% and the elevated blood pressure (blood pressure lowering medication reduced to a minimum) was “no hypertension”.

From patent US20110105434A1, “2-AMINO PURINE DERIVATIVES AND THEIR USE AS ANTI-HERPETIC AGENTS” (priority 2007, published 2011)
